{"source": "patent US8148422B2", "about": "“Sulfonamides as TRPM8 modulators” (Janssen Pharmaceutica, NV, priority 2008, dated 2012)", "target": "T1, canine TRPM8 (Canis lupus familiaris, UniProt Q1A7N1)", "T1 construct": "expressed in transfected cells", "T1 sequence (Q1A7N1 1-1104)": "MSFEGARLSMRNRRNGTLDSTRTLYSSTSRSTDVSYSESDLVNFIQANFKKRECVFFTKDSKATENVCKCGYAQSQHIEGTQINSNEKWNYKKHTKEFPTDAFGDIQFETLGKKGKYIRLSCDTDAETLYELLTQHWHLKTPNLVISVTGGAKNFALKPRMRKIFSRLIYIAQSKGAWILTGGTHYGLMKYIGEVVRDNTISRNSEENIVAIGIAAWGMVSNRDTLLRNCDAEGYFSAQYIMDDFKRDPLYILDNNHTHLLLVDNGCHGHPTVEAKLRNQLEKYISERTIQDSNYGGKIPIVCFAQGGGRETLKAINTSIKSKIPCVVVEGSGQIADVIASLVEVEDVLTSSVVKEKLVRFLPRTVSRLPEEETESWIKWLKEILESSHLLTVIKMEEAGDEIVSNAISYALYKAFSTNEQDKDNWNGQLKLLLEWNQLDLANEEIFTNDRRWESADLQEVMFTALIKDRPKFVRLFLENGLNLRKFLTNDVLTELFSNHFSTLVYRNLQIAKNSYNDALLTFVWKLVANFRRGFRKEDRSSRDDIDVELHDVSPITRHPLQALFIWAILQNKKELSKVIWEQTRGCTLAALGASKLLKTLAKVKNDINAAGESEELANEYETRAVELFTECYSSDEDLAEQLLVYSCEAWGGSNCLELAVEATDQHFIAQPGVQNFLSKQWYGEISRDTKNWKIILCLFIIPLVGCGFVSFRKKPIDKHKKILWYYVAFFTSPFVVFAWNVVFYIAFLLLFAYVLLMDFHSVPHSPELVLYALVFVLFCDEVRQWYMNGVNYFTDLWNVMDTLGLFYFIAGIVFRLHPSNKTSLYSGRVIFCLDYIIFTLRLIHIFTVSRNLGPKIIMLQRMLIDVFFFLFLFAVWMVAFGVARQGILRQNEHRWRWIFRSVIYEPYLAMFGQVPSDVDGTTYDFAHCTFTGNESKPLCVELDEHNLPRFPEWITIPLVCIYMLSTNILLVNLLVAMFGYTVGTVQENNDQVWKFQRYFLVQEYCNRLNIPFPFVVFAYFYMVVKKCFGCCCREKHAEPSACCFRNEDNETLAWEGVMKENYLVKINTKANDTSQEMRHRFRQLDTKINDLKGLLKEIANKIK", "experiment": "In vitro canine TRPM8 functional assay (Ca2+-sensitive fluorescent dye, FLIPR or FDSS, icilin challenge)", "assay_type": "cell-based", "conditions": "HEK293 cells stably expressing canine TRPM8; for inhibition at 0.2 µM: 0.2 μM compound, icilin challenge; for IC50: icilin at approx. 80% maximal response, eight-point dose-response, single determinations unless otherwise noted, read-out: IC50", "protocol": "The functional activity of compounds of the formula (I) was determined by measuring changes in intracellular calcium concentration using a Ca^2+-sensitive fluorescent dye. The changes in fluorescent signal were monitored by a fluorescence plate reader, either a FLIPR™ (Molecular Devices) or FDSS (Hamamatsu).\nAt 24 hrs prior to assay, HEK293 cells stably expressing canine TRPM8 were seeded in culture medium in black wall, clear-base poly-D-lysine coated 384-well plates (BD Biosciences, NJ, USA) and grown overnight in 5% CO2 at 37° C. On assay day, growth media was removed and cells were loaded with Calcium 3 Dye (Molecular Devices) for 35 min at 37° C., under 5% CO2 and then for 25 min at room temperature and atmosphere. Subsequently, cells were tested for agonist-induced increases in intracellular Ca^2+ levels using FLIPR™ or FDSS. Cells were challenged with a compound of the Formula (I) (at varying concentrations) and intracellular Ca^2+ was measured for 5 min prior to the addition of icilin to all wells to achieve a final concentration that produces approximately an 80% maximal response. EC50 or IC50 values for compounds of the present invention were determined from eight-point dose-response studies. Curves were generated using the average of quadruplicate wells for each data point."}
{"compound": "CCCN(CCS(=O)(=O)N(CCC1CC1)c1sc2ccccc2c1C)CC(C)C", "note": "[Cpd 95, N-(3-Methylbenzo[b]thiophen-2-yl)-N-(2-cyclopropyl-ethyl)-2-(n-propyl-isobutylamino)ethylsulfonamide]", "values": [{"measurement": "inhibition at 0.2 µM", "value": 103, "unit": "%"}, {"measurement": "IC50", "value": 23, "unit": "nM"}]}
{"compound": "O=S(=O)(CCN1CCCC(F)(F)C1)N(Cc1ccc(OC(F)(F)F)cc1)c1sc2ccccc2c1Br", "note": "[Cpd 67, N-(3-Bromobenzo[b]thiophen-2-yl)-N-(4-trifluoromethoxy-benzyl)-2-(3,3-difluoropiperidin-1-yl)ethylsulfonamide]", "values": [{"measurement": "inhibition at 0.2 µM", "value": 102, "unit": "%"}, {"measurement": "IC50", "value": 9, "unit": "nM"}]}
{"compound": "CCOC(=O)CNCCS(=O)(=O)N(Cc1ccc(OC(F)(F)F)cc1)c1sc2ccccc2c1C", "note": "[Cpd 47, N-(3-Methylbenzo[b]thiophen-2-yl)-N-(4-trifluoromethoxy-benzyl)-2-[(carboethoxymethyl)amino]ethylsulfonamide]", "values": [{"measurement": "inhibition at 0.2 µM", "value": 83, "unit": "%"}, {"measurement": "IC50", "value": 51, "unit": "nM"}]}
{"compound": "CCCN(CCS(=O)(=O)N(Cc1ccc(OC(F)(F)F)cc1)c1sc2ccccc2c1C)CC(C)C", "note": "[Cpd 82, N-(3-Methylbenzo[b]thiophen-2-yl)-N-(4-trifluoromethoxy-benzyl)-2-(isobutyl-propylamino)ethylsulfonamide]", "values": [{"measurement": "inhibition at 0.2 µM", "value": 100, "unit": "%"}, {"measurement": "IC50", "value": 16, "unit": "nM"}]}
{"compound": "CCC(=O)N(CCS(=O)(=O)N(CCCCC(F)(F)F)c1sc2ccccc2c1C)CC(C)C", "note": "[Cpd 90, N-(3-Methylbenzo[b]thiophen-2-yl)-N-(5,5,5-trifluoro-n-pent-1-yl)-2-(N-propionoyl-isobutylamino)ethylsulfonamide]", "values": [{"measurement": "inhibition at 0.2 µM", "value": 92, "unit": "%"}, {"measurement": "IC50", "value": 44, "unit": "nM"}]}
{"compound": "CCOC(=O)C1CCN(CCS(=O)(=O)N(Cc2ccc(OC(F)(F)F)cc2)c2sc3ccccc3c2C)CC1", "note": "[Cpd 41, N-(3-Methylbenzo[b]thiophen-2-yl)-N-(4-trifluoromethoxy-benzyl)-2-(4-carboethoxypiperidin-1-yl)ethylsulfonamide]", "values": [{"measurement": "inhibition at 0.2 µM", "value": 99, "unit": "%"}, {"measurement": "IC50", "value": 16, "unit": "nM"}]}
{"compound": "CC(C)CN(CCS(=O)(=O)N(Cc1ccc(OC(F)(F)F)cc1)c1sc2ccccc2c1Br)CC(C)C", "note": "[Cpd 63, N-(3-Bromobenzo[b]thiophen-2-yl)-N-(4-trifluoromethoxy-benzyl)-2-(di-iso-butylamino)ethylsulfonamide]", "values": [{"measurement": "inhibition at 0.2 µM", "value": 101, "unit": "%"}, {"measurement": "IC50", "value": 6, "unit": "nM"}]}
{"compound": "CCCN(CCC)CCS(=O)(=O)N(Cc1ccc(OC(F)(F)F)cc1)c1sc2ccccc2c1C", "note": "[Cpd 6, N-(3-Methylbenzo[b]thiophen-2-yl)-N-(4-trifluoromethoxy-benzyl)-2-(di-propylamino)ethylsulfonamide]", "values": [{"measurement": "inhibition at 0.2 µM", "value": 99, "unit": "%"}, {"measurement": "IC50", "value": 9, "unit": "nM"}]}
{"compound": "CCN(CCS(=O)(=O)N(Cc1ccc(OC(F)(F)F)cc1)c1sc2ccccc2c1C)CC(C)C", "note": "[Cpd 83, N-(3-Methylbenzo[b]thiophen-2-yl)-N-(4-trifluoromethoxy-benzyl)-2-(isobutyl-ethylamino)ethylsulfonamide]", "values": [{"measurement": "inhibition at 0.2 µM", "value": 99, "unit": "%"}, {"measurement": "IC50", "value": 17, "unit": "nM"}]}
{"compound": "CN(CCS(=O)(=O)N(Cc1ccc(OC(F)(F)F)cc1)c1ccc2ccccc2c1)Cc1ccccc1", "note": "[Cpd 57, N-(Naphth-2-yl)-N-(4-trifluoromethoxy-benzyl)-2-(benzyl-methylamino)ethylsulfonamide]", "values": [{"measurement": "inhibition at 0.2 µM", "value": 89, "unit": "%"}, {"measurement": "IC50", "value": 52, "unit": "nM"}]}
{"compound": "O=S(=O)(CCN1CCSCC1)N(Cc1ccc(OC(F)(F)F)cc1)c1ccc2ccccc2c1", "note": "[Cpd 52, N-(Naphth-2-yl)-N-(4-trifluoromethoxy-benzyl)-2-(thiomorpholin-4-yl)ethylsulfonamide]", "values": [{"measurement": "inhibition at 0.2 µM", "value": 87, "unit": "%"}, {"measurement": "IC50", "value": 42, "unit": "nM"}]}
{"compound": "CCC(=O)N(CCS(=O)(=O)N(CCC1CC1)c1sc2ccccc2c1C)CC(C)C", "note": "[Cpd 93, N-(3-Methylbenzo[b]thiophen-2-yl)-N-(2-cyclopropyl-ethyl)-2-(N-propionoyl-isobutylamino)ethylsulfonamide]", "values": [{"measurement": "inhibition at 0.2 µM", "value": 100, "unit": "%"}, {"measurement": "IC50", "value": 43, "unit": "nM"}]}
{"compound": "Cc1c(N(CCC2CC2)S(=O)(=O)CCN2CCC(C(=O)O)CC2)sc2ccccc12", "note": "[Cpd 87, N-(3-Methylbenzo[b]thiophen-2-yl)-N-(2-cyclopropylethyl)-2-(4-carboxypiperidin-1-yl)ethylsulfonamide]", "values": [{"measurement": "inhibition at 0.2 µM", "value": 29, "unit": "%"}]}
{"compound": "O=S(=O)(CCN1CCSCC1)N(Cc1ccc(OC(F)(F)F)cc1)c1sc2ccccc2c1Br", "note": "[Cpd 66, N-(3-Bromobenzo[b]thiophen-2-yl)-N-(4-trifluoromethoxy-benzyl)-2-(thiomorpholin-4-yl)ethylsulfonamide]", "values": [{"measurement": "inhibition at 0.2 µM", "value": 100, "unit": "%"}, {"measurement": "IC50", "value": 29, "unit": "nM"}]}
{"compound": "Cc1c(N(Cc2ccc(OC(F)(F)F)cc2)S(=O)(=O)CCN(C)CCc2ccccc2)sc2ccccc12", "note": "[Cpd 17, N-(3-Methylbenzo[b]thiophen-2-yl)-N-(4-trifluoromethoxy-benzyl)-2-(methyl-2-phenylethylamino)ethylsulfonamide]", "values": [{"measurement": "inhibition at 0.2 µM", "value": 98, "unit": "%"}, {"measurement": "IC50", "value": 22, "unit": "nM"}]}
{"compound": "Cc1c(N(Cc2ccc(OC(F)(F)F)cc2)S(=O)(=O)CCN(C)CCO)sc2ccccc12", "note": "[Cpd 10, N-(3-Methylbenzo[b]thiophen-2-yl)-N-(4-trifluoromethoxy-benzyl)-2-(methyl-2-hydroxyethylamino)ethylsulfonamide]", "values": [{"measurement": "inhibition at 0.2 µM", "value": 98, "unit": "%"}, {"measurement": "IC50", "value": 29, "unit": "nM"}]}
{"compound": "O=S(=O)(CCN1CCOCC1)N(Cc1ccc(OC(F)(F)F)cc1)c1ccc2ccccc2c1", "note": "[Cpd 51, N-(Naphth-2-yl)-N-(4-trifluoromethoxy-benzyl)-2-(morpholin-4-yl)ethylsulfonamide]", "values": [{"measurement": "inhibition at 0.2 µM", "value": 87, "unit": "%"}, {"measurement": "IC50", "value": 28, "unit": "nM"}]}
{"compound": "O=S(=O)(CCN1CCCCC1)N(Cc1ccc(OC(F)(F)F)cc1)c1sc2ccccc2c1Br", "note": "[Cpd 64, N-(3-Bromobenzo[b]thiophen-2-yl)-N-(4-trifluoromethoxy-benzyl)-2-(N-piperidinyl)ethylsulfonamide]", "values": [{"measurement": "inhibition at 0.2 µM", "value": 101, "unit": "%"}, {"measurement": "IC50", "value": 27, "unit": "nM"}]}
{"compound": "CCCCN(CCCC)CCS(=O)(=O)N(Cc1ccc(OC(F)(F)F)cc1)c1sc2ccccc2c1C", "note": "[Cpd 15, N-(3-Methylbenzo[b]thiophen-2-yl)-N-(4-trifluoromethoxy-benzyl)-2-(dibutylamino)ethylsulfonamide]", "values": [{"measurement": "inhibition at 0.2 µM", "value": 100, "unit": "%"}, {"measurement": "IC50", "value": 22, "unit": "nM"}]}
{"compound": "Cc1c(N(Cc2ccc(OC(F)(F)F)cc2)S(=O)(=O)CCN2CC(C)CC(C)C2)sc2ccccc12", "note": "(stereo not drawn) [Cpd 21, N-(3-Methylbenzo[b]thiophen-2-yl)-N-(4-trifluoromethoxy-benzyl)-2-(3,5-dimethylpiperidin-1-yl)ethylsulfonamide]", "values": [{"measurement": "inhibition at 0.2 µM", "value": 100, "unit": "%"}, {"measurement": "IC50", "value": 52, "unit": "nM"}]}
{"compound": "Cc1c(N(Cc2ccc(OC(F)(F)F)cc2)S(=O)(=O)CCN2CCc3ccccc3C2)sc2ccccc12", "note": "[Cpd 40, N-(3-Methylbenzo[b]thiophen-2-yl)-N-(4-trifluoromethoxy-benzyl)-2-(1,2,3,4-tetrahydro-isoquinolin-2-yl)ethylsulfonamide]", "values": [{"measurement": "inhibition at 0.2 µM", "value": 100, "unit": "%"}, {"measurement": "IC50", "value": 29, "unit": "nM"}]}
{"compound": "Cc1c(N(Cc2ccc(OC(F)(F)F)cc2)S(=O)(=O)CCN2CCNC(=O)C2)sc2ccccc12", "note": "[Cpd 27, N-(3-Methylbenzo[b]thiophen-2-yl)-N-(4-trifluoromethoxy-benzyl)-2-(3-oxopiperazin-1-yl)ethylsulfonamide]", "values": [{"measurement": "inhibition at 0.2 µM", "value": 101, "unit": "%"}, {"measurement": "IC50", "value": 20, "unit": "nM"}]}
{"compound": "Cc1c(N(Cc2ccc(OC(F)(F)F)cc2)S(=O)(=O)CCN2CCC(CO)CC2)sc2ccccc12", "note": "[Cpd 23, N-(3-Methylbenzo[b]thiophen-2-yl)-N-(4-trifluoromethoxy-benzyl)-2-(4-hydroxymethylpiperidin-1-yl)ethylsulfonamide]", "values": [{"measurement": "inhibition at 0.2 µM", "value": 97, "unit": "%"}, {"measurement": "IC50", "value": 44, "unit": "nM"}]}
{"compound": "CCCN(CCS(=O)(=O)N(CCCCC(F)(F)F)c1sc2ccccc2c1C)CC(C)C", "note": "[Cpd 91, N-(3-Methylbenzo[b]thiophen-2-yl)-N-(5,5,5-tritluoro-n-pent-1-yl)-2-(n-propyl-isobutylamino)ethylsulfonamide]", "values": [{"measurement": "inhibition at 0.2 µM", "value": 99, "unit": "%"}, {"measurement": "IC50", "value": 50, "unit": "nM"}]}
{"compound": "Cc1c(N(Cc2ccc(OC(F)(F)F)cc2)S(=O)(=O)CCN2CCC2)sc2ccccc12", "note": "[Cpd 39, N-(3-Methylbenzo[b]thiophen-2-yl)-N-(4-trifluoromethoxy-benzyl)-2-(azetidin-1-yl)ethylsulfonamide]", "values": [{"measurement": "inhibition at 0.2 µM", "value": 80, "unit": "%"}, {"measurement": "IC50", "value": 113, "unit": "nM"}]}
{"compound": "CCCCN(CCCC)CCS(=O)(=O)N(Cc1ccc(OC(F)(F)F)cc1)c1sc2ccccc2c1Br", "note": "[Cpd 62, N-(3-Bromobenzo[b]thiophen-2-yl)-N-(4-trifluoromethoxy-benzyl)-2-(di-n-butylamino)ethylsulfonamide]", "values": [{"measurement": "inhibition at 0.2 µM", "value": 96, "unit": "%"}, {"measurement": "IC50", "value": 38, "unit": "nM"}]}
{"compound": "Cc1c(N(Cc2ccc(OC(F)(F)F)cc2)S(=O)(=O)CCN2CCC(C(F)(F)F)CC2)sc2ccccc12", "note": "[Cpd 44, N-(3-Methylbenzo[b]thiophen-2-yl)-N-(4-trifluoromethoxy-benzyl)-2-(4-trifluoromethylpiperidin-1-yl)ethylsulfonamide]", "values": [{"measurement": "inhibition at 0.2 µM", "value": 99, "unit": "%"}, {"measurement": "IC50", "value": 45, "unit": "nM"}]}
{"compound": "Cc1c(N(Cc2ccc(OC(F)(F)F)cc2)S(=O)(=O)CCN2CCC[C@H]2C(F)(F)F)sc2ccccc12", "note": "[Cpd 71, N-(3-Methylbenzo[b]thiophen-2-yl)-N-(4-trifluoromethoxy-benzyl)-2-[2(S)-trifluoromethyl-pyrrolidin-1-yl]ethylsulfonamide]", "values": [{"measurement": "inhibition at 0.2 µM", "value": 100, "unit": "%"}, {"measurement": "IC50", "value": 4, "unit": "nM"}]}
{"compound": "CC(=O)N(CCS(=O)(=O)N(CCC1CC1)c1sc2ccccc2c1C)CC(C)C", "note": "[Cpd 92, N-(3-Methylbenzo[b]thiophen-2-yl)-N-(2-cyclopropyl-ethyl)-2-(N-acetyl-isobutylamino)ethylsulfonamide]", "values": [{"measurement": "inhibition at 0.2 µM", "value": 101, "unit": "%"}, {"measurement": "IC50", "value": 35, "unit": "nM"}]}
